Laboratory results as given in ChEMBL document CHEMBL1201862, “PubChem BioAssay data set” (2004).
Activity calls are given as the source filed them. Rule as the data show it: actives have a measured IC50 and inactives only a lower limit.

Target: Envelope glycoprotein gp160 (Human immunodeficiency virus 1, UniProt Q6QLK5)
Test: cell-free HIV fusion peptide-binding blockers – biochemical, uHTS, fluorescence dequenching, […] (AID 1986)

Envelope glycoprotein gp160, sequence (Q6QLK5 whole entry, the tested form may be a part): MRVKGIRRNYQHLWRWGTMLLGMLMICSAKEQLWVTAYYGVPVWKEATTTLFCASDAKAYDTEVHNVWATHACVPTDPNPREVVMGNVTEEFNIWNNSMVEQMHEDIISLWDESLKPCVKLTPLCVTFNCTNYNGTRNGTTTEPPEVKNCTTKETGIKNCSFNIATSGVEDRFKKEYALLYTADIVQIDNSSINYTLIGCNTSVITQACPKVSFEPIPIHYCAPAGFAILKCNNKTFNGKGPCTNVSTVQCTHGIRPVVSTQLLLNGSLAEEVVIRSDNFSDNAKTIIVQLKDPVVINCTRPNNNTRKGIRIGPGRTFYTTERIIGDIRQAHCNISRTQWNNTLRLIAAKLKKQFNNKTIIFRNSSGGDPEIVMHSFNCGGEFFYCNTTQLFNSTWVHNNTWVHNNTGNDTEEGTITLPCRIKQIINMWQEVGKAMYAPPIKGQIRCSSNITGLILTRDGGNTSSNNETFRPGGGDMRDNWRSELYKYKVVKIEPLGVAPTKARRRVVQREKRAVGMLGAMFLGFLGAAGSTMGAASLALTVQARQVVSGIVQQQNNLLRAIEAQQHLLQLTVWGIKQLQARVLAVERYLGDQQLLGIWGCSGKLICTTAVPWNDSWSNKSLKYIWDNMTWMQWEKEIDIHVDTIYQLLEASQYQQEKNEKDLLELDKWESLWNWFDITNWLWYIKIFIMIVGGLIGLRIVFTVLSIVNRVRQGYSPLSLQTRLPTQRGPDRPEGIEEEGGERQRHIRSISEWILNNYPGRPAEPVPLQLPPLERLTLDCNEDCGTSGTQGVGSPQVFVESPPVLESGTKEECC

| Structure (SMILES) | IC50 |
| --- | --- |
| O=C(N/N=C/c1cc(Cl)cc([N+](=O)[O-])c1O)NC12CC3CC(CC(C3)C1)C2 | 23.2 µM (active) |
| O=C(O)CN1C(=O)/C(=C\c2cc(Br)ccc2OCc2ccccc2F)SC1=S | 10.9 µM (active) |
